Source: patent US7604949B2, “Methods and compositions that affect melanogenesis” (New York University, priority 1999, dated 2009)
Each block holds one molecule with its values, some of them ahead of it.

Experiments:
[1] = tested on: late endosomal/lysosomal cholesterol trafficking; conditions: cited from earlier work
[2] = tested on: Melan-a wild type melanocytes; assay: Melanin content after ATPase inhibitor treatment, Melan-a; format: cell-based, mouse; conditions: 36 hours
Method: (§1) Wild type melan-a (a/a, P/P), an immortalized melanocyte line derived from C57BL6J mice; melan-p1 melanocytes (a/a, p^cp/p^25H), an immortalized line derived from p-null mice; melan-p1 (P10), a melan-p1 line stably transfected with an expression plasmid carrying the pink-eyed dilution gene; B16, an amelanotic mouse melanoma cell line; and B16F10, a slightly pigmented mouse melanoma cell line, were used in this study.
(§2) Cells were cultured in RMPI-1640 (Sigma, St. Louis, Mo.) supplemented with 10% fetal calf serum, 5% sodium pyruvate, 5% glutamate, 5 units/ml penicillin, 5 μg/ml streptomycin, 1% non-essential amino acids and 200 nM 12-O-tetradecanoyl phorbol 13-acetate for 24 hours The medium was than replaced with RPMI containing either 0, 1, 2 or 2.5 μM bafilomycin A1 (Sigma, St. Louis, Mo.) or 0, 0.5 or 1.0 μM concanamycin A (Sigma, St. Louis, Mo.). […] The supernatant was removed and protein content determined using a protein assay kit (BioRad, Richmond, Calif.).
(§3) The melanin content in the pellet was determined following removal of the supernatant Each sample was treated with 0.5 ml ethanol:ether (1:1), vortexed and incubated at room temperature for 10 minutes. […] The sample was then transferred to a 96-well plate and the optical density was read at 490 nm. […]

B16F10 melanoma cells = assay: Melanin content after ATPase inhibitor treatment, B16F10; format: cell-based, mouse; conditions: 36 hours
Method: as §1, §2, §3

Melan-p (P10) cells = assay: Melanin content after ATPase inhibitor treatment, Melan-p (P10); format: cell-based, mouse; conditions: 36 hours
Method: as §1, §2, §3

B16 melanoma cells = assay: Melanin content after ATPase inhibitor treatment, B16; format: cell-based, mouse; conditions: 36 hours
Method: as §1, §2, §3

[3] = tested on: Melan-p p-null melanocytes; assay: Melanin content after ATPase inhibitor treatment, Melan-p; format: cell-based, mouse; conditions: 36 hours
Method: as §1, §2, §3

[4] = tested on: amelanotic melanoma cells that express tyrosinase; conditions: nanomolar concentrations; cited from earlier work
p-glycoprotein ATPase = p-glycoprotein ATPase (Cricetulus griseus, UniProt P21448); conditions: micromolar concentrations; cited from earlier work
Chain of p-glycoprotein ATPase (P21448 whole entry): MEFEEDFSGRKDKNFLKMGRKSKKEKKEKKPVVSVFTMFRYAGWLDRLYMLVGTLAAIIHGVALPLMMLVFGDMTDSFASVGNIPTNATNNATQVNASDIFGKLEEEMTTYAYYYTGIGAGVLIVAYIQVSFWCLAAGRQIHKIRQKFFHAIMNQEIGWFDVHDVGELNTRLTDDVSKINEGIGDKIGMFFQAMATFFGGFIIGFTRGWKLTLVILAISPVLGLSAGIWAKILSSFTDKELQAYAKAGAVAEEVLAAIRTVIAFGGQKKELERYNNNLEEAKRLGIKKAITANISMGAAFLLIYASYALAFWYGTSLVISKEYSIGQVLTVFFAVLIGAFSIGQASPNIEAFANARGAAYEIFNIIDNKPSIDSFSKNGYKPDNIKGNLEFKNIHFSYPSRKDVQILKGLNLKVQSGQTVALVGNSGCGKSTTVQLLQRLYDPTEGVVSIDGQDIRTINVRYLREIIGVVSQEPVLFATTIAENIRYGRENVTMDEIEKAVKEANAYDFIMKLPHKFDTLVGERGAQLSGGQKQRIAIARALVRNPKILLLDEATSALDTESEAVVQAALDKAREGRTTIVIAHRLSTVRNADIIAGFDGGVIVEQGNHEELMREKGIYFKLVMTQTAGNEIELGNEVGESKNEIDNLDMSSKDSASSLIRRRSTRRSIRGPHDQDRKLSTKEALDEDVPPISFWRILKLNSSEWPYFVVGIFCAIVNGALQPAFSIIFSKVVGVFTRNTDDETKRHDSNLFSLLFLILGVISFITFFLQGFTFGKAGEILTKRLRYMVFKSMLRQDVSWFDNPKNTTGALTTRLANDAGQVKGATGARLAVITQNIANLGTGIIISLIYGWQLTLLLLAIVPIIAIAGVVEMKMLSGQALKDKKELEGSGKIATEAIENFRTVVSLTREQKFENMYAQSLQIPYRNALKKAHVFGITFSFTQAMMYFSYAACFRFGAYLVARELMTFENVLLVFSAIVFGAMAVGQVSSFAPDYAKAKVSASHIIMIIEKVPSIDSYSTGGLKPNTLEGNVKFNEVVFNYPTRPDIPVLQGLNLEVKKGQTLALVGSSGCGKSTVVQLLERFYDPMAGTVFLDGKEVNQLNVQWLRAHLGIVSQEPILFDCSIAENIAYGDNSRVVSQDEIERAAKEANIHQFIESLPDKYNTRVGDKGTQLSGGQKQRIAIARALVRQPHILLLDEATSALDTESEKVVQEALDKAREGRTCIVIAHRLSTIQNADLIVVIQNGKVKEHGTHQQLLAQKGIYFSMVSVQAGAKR

tyrosinase [5] = target: T1, tyrosinase (Mus musculus, UniProt P11344); assay: Tyrosinase activity of extracts of COS cells transfected with tyrosinase-encoding gene alone (V+T); format: cell-based; set-up: expressed in transfected cells; host or cells: COS cells (monkey kidney); conditions: vs untreated
T1 sequence (P11344 19-533): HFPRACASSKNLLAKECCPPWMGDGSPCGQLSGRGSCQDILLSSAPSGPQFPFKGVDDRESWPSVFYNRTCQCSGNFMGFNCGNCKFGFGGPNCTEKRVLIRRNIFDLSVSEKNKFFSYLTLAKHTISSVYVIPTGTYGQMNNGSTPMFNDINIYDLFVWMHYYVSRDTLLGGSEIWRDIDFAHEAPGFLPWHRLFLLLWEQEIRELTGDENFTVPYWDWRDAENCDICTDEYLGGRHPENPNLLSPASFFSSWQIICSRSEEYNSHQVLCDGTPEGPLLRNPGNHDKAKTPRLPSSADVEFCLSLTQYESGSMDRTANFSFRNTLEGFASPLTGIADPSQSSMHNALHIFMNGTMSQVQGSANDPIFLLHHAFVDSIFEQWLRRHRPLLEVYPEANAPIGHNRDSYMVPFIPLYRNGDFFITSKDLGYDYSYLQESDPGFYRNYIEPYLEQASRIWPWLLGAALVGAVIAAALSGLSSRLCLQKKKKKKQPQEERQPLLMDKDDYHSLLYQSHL
Text: (§4) Expression vectors were constructed to express P protein and tyrosinase genes in cultured cells. Specifically, the coding sequence for tyrosinase was removed as a HindIII-EcoRI fragment from clone TYBS (Yokohama et al., 1990, Nucl. Acids. Res. 18:7293-7298) and cloned into the HindIII/EcoRI sites of pcDNA I/lamp (Invitrogen, Calif.). Coding sequence for the P protein was removed as a BamHI-EcoRI fragment from MC2701 (Gardner et al., 1992, supra) and cloned into the BamHI/EcoRV sites of pcDNA3 and pcDNA3.1/V5/His-TOPO (Invitrogen, Calif.). COS cells were transfected with the pcDNA1-based plasmids and FuGENE™ 6 (Roche Molecular Biochemicals, Indianapolis, Ind.) as transfection agents for 48 hours. Cells were transformed with: (i) the vector alone; (ii) the vector carrying a tyrosinase-encoding gene; (iii) the vector carrying a P protein-encoding gene; or (iv) vectors carrying a tyrosinase-encoding gene and a P protein-encoding gene. Transformed cells were washed and extracted as above. Tyrosinase activity was then measured as above. Tyrosinase assays were performed on 60 micrograms of cell protein.
(§5) The tyrosinase activity of cell extracts was determined as above.

tyrosinase [6] = target: T1, tyrosinase; assay: Tyrosinase activity of melan-a cell extracts (radiometric tyrosine hydroxylase assay); format: cell-based; conditions: melan-a cells, 48 hours, vs untreated
P protein = target: T2, P protein (Mus musculus, UniProt Q62052); assay: Tyrosinase activity of extracts of COS cells transfected with tyrosinase-encoding and P protein-encoding genes (T+P); format: cell-based; conditions: vs untreated
T2 construct: expressed in transfected cells; host or cells: COS cells (monkey kidney), co-transfected with the tyrosinase vector
T2 sequence (Q62052 1-833): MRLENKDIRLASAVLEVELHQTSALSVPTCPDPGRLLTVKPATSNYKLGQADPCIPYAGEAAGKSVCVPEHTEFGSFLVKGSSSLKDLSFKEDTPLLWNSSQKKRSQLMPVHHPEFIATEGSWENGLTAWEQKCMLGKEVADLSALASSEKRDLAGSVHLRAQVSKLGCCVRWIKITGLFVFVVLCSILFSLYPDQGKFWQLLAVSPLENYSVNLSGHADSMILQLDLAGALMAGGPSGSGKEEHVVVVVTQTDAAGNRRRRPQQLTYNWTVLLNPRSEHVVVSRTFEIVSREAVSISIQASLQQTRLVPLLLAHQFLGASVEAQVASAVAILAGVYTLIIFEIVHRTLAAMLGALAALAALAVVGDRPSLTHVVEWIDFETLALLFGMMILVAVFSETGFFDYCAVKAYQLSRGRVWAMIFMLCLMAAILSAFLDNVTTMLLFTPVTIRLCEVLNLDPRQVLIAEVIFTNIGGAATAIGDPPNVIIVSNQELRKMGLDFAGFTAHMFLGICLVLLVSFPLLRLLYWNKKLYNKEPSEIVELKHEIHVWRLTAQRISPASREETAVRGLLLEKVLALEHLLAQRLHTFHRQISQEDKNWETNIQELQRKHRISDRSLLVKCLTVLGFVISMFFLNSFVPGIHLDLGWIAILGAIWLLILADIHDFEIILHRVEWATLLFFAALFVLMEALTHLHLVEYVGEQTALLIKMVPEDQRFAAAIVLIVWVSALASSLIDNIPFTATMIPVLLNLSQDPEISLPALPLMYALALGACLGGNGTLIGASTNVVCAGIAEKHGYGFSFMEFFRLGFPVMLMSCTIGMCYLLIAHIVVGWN
Text: as §4, §5

melan-p1 cells [7] = assay: Secretion of tyrosinase into medium of melan-p1 cells with protease inhibitor; format: cell-based, mouse
Method: (§6) (A) Melan-p1 cells incubated in low (0.03 mM) tyrosine and high (0.3 mM) tyrosine (TYR) were treated for 48 hours with increasing concentrations of the protease inhibitor E64 (μM). The tyrosinase activity in the media is expressed as a percentage of total activity in the extract and medium. (B) The concentration of melanin was determined by solubilizing the cell pellet and measuring the absorbance at 470 nm.
Tyrosinase is a type I membrane protein anchored in the membrane, and it is thus likely that proteolysis, which leads to the clipping of the tail, is required for secretion. The truncated protein would not be detected by αPEP7, which is directed against the tail, although the catalytic domains would remain functional. We, therefore, examined the effects of a series of protease inhibitors on the secretion of tyrosinase by melan-a and melan-p1 cells.
(§7) If proteolysis and secretion of tyrosinase were the precipitating factor in the misrouting of tyrosinase, then E64 should increase melanin accumulation in melan-p1 cells. […] A range of E64 concentrations was tested at low (0.03 mM) and high (0.3 mM) tyrosine.

melan-p1 cells [8] = assay: Melanin content of melan-p1 cells with protease inhibitor; format: cell-based, mouse; conditions: melan-p1, high concentrations of tyrosine
Method: as §6, §7

[9] = bafilomycin A1 0, 1, 2 or 2.5 μM
[10] = concanamycin A 0, 0.5 or 1.0 μM

Compound: CCCCCCCCCCCCC/C=C/[C@@H](O)[C@@H](N)CO [sphingosine]
cholesterol movement from the PM to the ER, from the late endosome/lysosome to the ER and to the PM [1]: inhibit cholesterol movement

Compound: CO/C1=C\C(C)=C\[C@@H](C)[C@@H](O)[C@@H](C)C/C(C)=C/C=C/[C@H](OC)[C@@H]([C@@H](C)[C@@H](O)[C@H](C)[C@@]2(O)C[C@@H](O)[C@H](C)[C@@H](C(C)C)O2)OC1=O [bafilomycin A1]
melanin content [2, 9]: initially increases in the presence of μM concentrations of bafilomycin A1 but drops at the highest concentration tested
pigmentation (B16F10 melanoma cells; B16F10, bafilomycin A1 0, 1, 2 or 2.5 μM): demonstrates increasing pigmentation which diminishes at higher concentrations
melanin content (Melan-p (P10) cells; [9]): initially increases in the presence of μM concentrations of bafilomycin A1 but drops at the highest concentration tested
melanin content (B16 melanoma cells; B16, bafilomycin A1 0, 1, 2 or 2.5 μM): does not respond
melanin levels [3, 9]: increased with an increase in bafilomycin A1 concentration
activation of melanogenesis [4]: activate melanogenesis
inhibition of p-glycoprotein ATPase activity (p-glycoprotein ATPase): inhibit p-glycoprotein ATPase activity at micromolar concentrations

tyrosinase activity of extracts, cells expressing only tyrosinase (tyrosinase [5]; 10 micromolar compound): did not have an appreciable effect
tyrosinase activity of extracts, cells expressing both P protein and tyrosinase (P protein; 10 micromolar compound): did not have an appreciable effect
Compound: CN1[C@@H]2CC[C@H]1C[C@@H](OC(c1ccccc1)c1ccccc1)C2 [benztropine]
tyrosinase activity of cell extracts (tyrosinase [6]; 10 micromolar compound): greater tyrosinase activities than untreated cells

Compound: O=C(O)/C=C\C(=O)O.O=[N+]([O-])c1ccc2nc(N3CCNCC3)ccc2c1 [nitroquipazine, 6-nitro-2-(1-piperazinyl)-quinoline maleate]
tyrosinase activity of extracts, cells expressing only tyrosinase (tyrosinase [5]; 30 micromolar compound): lower tyrosinase activity
tyrosinase activity of cell extracts (tyrosinase [6]; 30 micromolar compound): greater tyrosinase activities than untreated cells
tyrosinase activity of extracts, cells expressing both P protein and tyrosinase (P protein; 30 micromolar compound): lower tyrosinase activity

Compound: CC(=O)[C@H]1CC[C@H]2[C@@H]3CCC4=CC(=O)CC[C@]4(C)[C@H]3CC[C@]12C [progesterone]
cholesterol movement from the PM to the ER, from the late endosome/lysosome to the ER and to the PM [1]: inhibit cholesterol movement

Compound: CC(C)C[C@H](NC(=O)[C@H]1O[C@@H]1C(=O)O)C(=O)NCCCCN=C(N)N [E64]
tyrosinase activity in the media as percentage of total activity in extract and medium (melan-p1 cells [7]; melan-p1, 0.03 mM tyrosine, 12.5 μM E64, 48 hours (untreated 7.1%)): 4.0%
tyrosinase activity in the media as percentage of total activity in extract and medium (melan-p1 cells [7]; melan-p1, 0.03 mM tyrosine, 25 μM E64, 48 hours (untreated 7.1%)): 3.8%
tyrosinase activity in the media as percentage of total activity in extract and medium (melan-p1 cells [7]; melan-p1, 0.3 mM tyrosine, E64, 48 hours (untreated 6.5%)): 3.9%
intracellular melanin production (melan-p1 cells [8]): reduced intracellular melanin production

Compound: C/C=C/[C@H]1O[C@@](O)([C@@H](C)[C@H](O)[C@H](C)[C@H]2OC(=O)/C(OC)=C/C(C)=C/[C@@H](C)[C@@H](O)[C@@H](CC)[C@@H](O)[C@H](C)C/C(C)=C/C=C/[C@@H]2OC)C[C@@H](O[C@H]2C[C@@H](O)[C@H](OC(N)=O)[C@@H](C)O2)[C@@H]1C [concanamycin A]
melanin content [2, 10]: is decreased
pigmentation (B16F10 melanoma cells; B16F10, concanamycin A 0, 0.5 or 1.0 μM): demonstrates increasing pigmentation which diminishes at higher concentrations
melanin content (Melan-p (P10) cells; [10]): is decreased
melanin content (B16 melanoma cells; B16, concanamycin A 0, 0.5 or 1.0 μM): does not respond
melanin levels [3, 10]: increase with an increase in concanamycin A concentration
activation of melanogenesis [4]: activate melanogenesis
inhibition of p-glycoprotein ATPase activity (p-glycoprotein ATPase): inhibit p-glycoprotein ATPase activity at micromolar concentrations

Compound: C/C=C/[C@H]1O[C@@](O)([C@@H](C)[C@H](O)[C@H](C)[C@H]2OC(=O)/C(OC)=C/C(C)=C/[C@@H](C)[C@@H](O)[C@@H](C)[C@@H](O)[C@H](C)C/C(C)=C/C=C/[C@@H]2OC)C[C@@H](O[C@H]2C[C@@H](O)[C@H](OC(N)=O)[C@@H](C)O2)[C@@H]1C [concanamycin B]
inhibition of p-glycoprotein ATPase activity (p-glycoprotein ATPase): inhibit p-glycoprotein ATPase activity at micromolar concentrations
